Results: ChEMBL document CHEMBL3045670, “Protective effect of selenium in Broccoli (Brassica oleracea) plants subjected to cadmium exposure” (J Agric Food Chem, 2008)
The source made the active and inactive calls. No cut-off for these calls is given here.

Tests used:
Brassica oleracea [1] = assay: Reduction in MDA level in Brassica oleracea (Broccoli) seedlings grown in hydroponic culture containing compound at 1 mg/L after 30 days after compound treatment; assay type: functional, organism-based
Fruit [2] = assay: Drug level in fruits of Brassica oleracea (Broccoli) seedlings grown in hydroponic culture containing 1 mg/L measured after 40 days after compound treatment; assay type: ADME; conditions: 960 h
Brassica oleracea [3] = assay: Effect on chlorophyll level assessed per dry weight in Brassica oleracea (Broccoli) seedlings grown in hydroponic culture containing compound at 1 mg/L after 40 days after compound treatment (reference value: 181 +/- 23 mg/kg); assay type: functional
Fruit [4] = assay: Drug level in fruits of Brassica oleracea (Broccoli) seedlings grown in hydroponic culture containing 1 mg/L in presence of 1 mg/L CdCl2 measured after 40 days after compound treatment; assay type: ADME; conditions: 960 h
Leaf [5] = assay: Drug level in leaves of Brassica oleracea (Broccoli) seedlings grown in hydroponic culture containing compound at 1 mg/L in presence of 1 mg/L CdCl2 assessed as Se(IV) level measured after 40 days after compound treatment; assay type: ADME; conditions: 960 h
Root [6] = assay: Drug level in roots of Brassica oleracea (Broccoli) seedlings grown in hydroponic culture containing compound at 1 mg/L assessed as Se(IV) level measured after 40 days after compound treatment; assay type: ADME; conditions: 960 h
Fruit [7] = assay: Drug level in fruits of Brassica oleracea (Broccoli) seedlings grown in hydroponic culture containing compound at 1 mg/L in presence of 1 mg/L CdCl2 assessed as SeMetSeCys level measured after 40 days after compound treatment; assay type: ADME; conditions: 960 h
Root [8] = assay: Drug level in roots of Brassica oleracea (Broccoli) seedlings grown in hydroponic culture containing 1 mg/L measured after 40 days after compound treatment; assay type: ADME; conditions: 960 h
Root [9] = assay: Drug level in roots of Brassica oleracea (Broccoli) seedlings grown in hydroponic culture containing compound at 1 mg/L in presence of 1 mg/L CdCl2 assessed as SeMetSeCys level measured after 40 days after compound treatment; assay type: ADME; conditions: 960 h
Root [10] = assay: Effect on cadmium level in roots of Brassica oleracea (Broccoli) seedlings grown in hydroponic culture containing 1 mg/L measured after 40 days after compound treatment; assay type: ADME; conditions: 960 h
Fruit [11] = assay: Drug level in fruits of Brassica oleracea (Broccoli) seedlings grown in hydroponic culture containing compound at 1 mg/L assessed as SeMet level measured after 40 days after compound treatment; assay type: ADME; conditions: 960 h
Leaf [12] = assay: Drug level in leaves of Brassica oleracea (Broccoli) seedlings grown in hydroponic culture containing compound at 1 mg/L in presence of 1 mg/L CdCl2 assessed as SeMet level measured after 40 days after compound treatment; assay type: ADME; conditions: 960 h
Root [13] = assay: Drug level in roots of Brassica oleracea (Broccoli) seedlings grown in hydroponic culture containing compound at 1 mg/L in presence of 1 mg/L CdCl2 assessed as SeMet level measured after 40 days after compound treatment; assay type: ADME; conditions: 960 h
Brassica oleracea [14] = assay: Effect on chlorophyll level assessed per dry weight in Brassica oleracea (Broccoli) seedlings grown in hydroponic culture containing compound at 1 mg/L after 10 days after compound treatment (reference value: 200 +/- 26 mg/kg); assay type: functional
Root [15] = assay: Drug level in roots of Brassica oleracea (Broccoli) seedlings grown in hydroponic culture containing compound at 1 mg/L assessed as SeMetSeCys level measured after 40 days after compound treatment; assay type: ADME; conditions: 960 h
Leaf [16] = assay: Drug level in leaves of Brassica oleracea (Broccoli) seedlings grown in hydroponic culture containing compound at 1 mg/L in presence of 1 mg/L CdCl2 assessed as SeMetSeCys level measured after 40 days after compound treatment; assay type: ADME; conditions: 960 h
Fruit [17] = assay: Effect on cadmium level in fruits of Brassica oleracea (Broccoli) seedlings grown in hydroponic culture containing 1 mg/L in presence of 1 mg/L CdCl2 measured after 40 days after compound treatment; assay type: ADME; conditions: 960 h
Root [18] = assay: Drug level in roots of Brassica oleracea (Broccoli) seedlings grown in hydroponic culture containing compound at 1 mg/L assessed as SeMet level measured after 40 days after compound treatment; assay type: ADME; conditions: 960 h
Fruit [19] = assay: Drug level in fruits of Brassica oleracea (Broccoli) seedlings grown in hydroponic culture containing compound at 1 mg/L assessed as Se(IV) level measured after 40 days after compound treatment; assay type: ADME; conditions: 960 h
Fruit [20] = assay: Drug level in fruits of Brassica oleracea (Broccoli) seedlings grown in hydroponic culture containing compound at 1 mg/L in presence of 1 mg/L CdCl2 assessed as SeMet level measured after 40 days after compound treatment; assay type: ADME; conditions: 960 h
Brassica oleracea [21] = assay: Effect on tocopherol level in Brassica oleracea (Broccoli) seedlings grown in hydroponic culture containing compound at 1 mg/L after 40 days after compound treatment; assay type: functional, organism-based
Root [22] = assay: Drug level in roots of Brassica oleracea (Broccoli) seedlings grown in hydroponic culture containing compound at 1 mg/L in presence of 1 mg/L CdCl2 assessed as Se(IV) level measured after 40 days after compound treatment; assay type: ADME; conditions: 960 h
Brassica oleracea [23] = assay: Protective effect against cadmium-induced toxicity in Brassica oleracea (Broccoli) seedlings grown in hydroponic culture containing compound at 1 mg/L in presence of 1 mg/L CdCl2 assessed as attenuation of reduction in tocopherol level after 40 days after compound treatment by spectrophotometry; assay type: functional; design: scale not given: the % may be the effect or the level left
Brassica oleracea [24] = assay: (§1) Protective effect against cadmium-induced toxicity in Brassica oleracea (Broccoli) seedlings grown in hydroponic culture containing compound at 1 mg/L in presence of 1 mg/L CdCl2 assessed as chlorophyll level assessed per dry weight after 10 days after compound treatment by spectrophotometry (reference value: 120 +/- 8 mg/kg dry weight); assay type: functional
Brassica oleracea [25] = assay: Protective effect against cadmium-induced toxicity in Brassica oleracea (Broccoli) seedlings grown in hydroponic culture containing compound at 1 mg/L in presence of 1 mg/L CdCl2 assessed as reduction in MDA level after 30 days after compound treatment by spectrophotometry; assay type: functional, organism-based
Leaf [26] = assay: Drug level in leaves of Brassica oleracea (Broccoli) seedlings grown in hydroponic culture containing compound at 1 mg/L assessed as SeMet level measured after 40 days after compound treatment; assay type: ADME; conditions: 960 h
Leaf [27] = assay: Effect on cadmium level in leaves of Brassica oleracea (Broccoli) seedlings grown in hydroponic culture containing 1 mg/L in presence of 1 mg/L CdCl2 measured after 40 days after compound treatment; assay type: ADME; conditions: 960 h
Root [28] = assay: Effect on cadmium level in roots of Brassica oleracea (Broccoli) seedlings grown in hydroponic culture containing 1 mg/L in presence of 1 mg/L CdCl2 measured after 40 days after compound treatment; assay type: ADME; conditions: 960 h
Leaf [29] = assay: Effect on cadmium level in leaves of Brassica oleracea (Broccoli) seedlings grown in hydroponic culture containing 1 mg/L measured after 40 days after compound treatment; assay type: ADME; conditions: 960 h
Fruit [30] = assay: Effect on cadmium level in fruits of Brassica oleracea (Broccoli) seedlings grown in hydroponic culture containing 1 mg/L measured after 40 days after compound treatment; assay type: ADME; conditions: 960 h
Leaf [31] = assay: Drug level in leaves of Brassica oleracea (Broccoli) seedlings grown in hydroponic culture containing 1 mg/L in presence of 1 mg/L CdCl2 measured after 40 days after compound treatment; assay type: ADME; conditions: 960 h
Brassica oleracea [32] = assay: as §1, with “40” for “10”, “118” for “120”, “12” for “8”; assay type: functional
Fruit [33] = assay: Drug level in fruits of Brassica oleracea (Broccoli) seedlings grown in hydroponic culture containing compound at 1 mg/L assessed as SeMetSeCys level measured after 40 days after compound treatment; assay type: ADME; conditions: 960 h
Leaf [34] = assay: Drug level in leaves of Brassica oleracea (Broccoli) seedlings grown in hydroponic culture containing compound at 1 mg/L assessed as Se(IV) level measured after 40 days after compound treatment; assay type: ADME; conditions: 960 h
Leaf [35] = assay: Drug level in leaves of Brassica oleracea (Broccoli) seedlings grown in hydroponic culture containing 1 mg/L measured after 40 days after compound treatment; assay type: ADME; conditions: 960 h
Leaf [36] = assay: Drug level in leaves of Brassica oleracea (Broccoli) seedlings grown in hydroponic culture containing compound at 1 mg/L assessed as SeMetSeCys level measured after 40 days after compound treatment; assay type: ADME; conditions: 960 h
Fruit [37] = assay: Drug level in fruits of Brassica oleracea (Broccoli) seedlings grown in hydroponic culture containing compound at 1 mg/L in presence of 1 mg/L CdCl2 assessed as Se(IV) level measured after 40 days after compound treatment; assay type: ADME; conditions: 960 h
Root [38] = assay: Drug level in roots of Brassica oleracea (Broccoli) seedlings grown in hydroponic culture containing 1 mg/L in presence of 1 mg/L CdCl2 measured after 40 days after compound treatment; assay type: ADME; conditions: 960 h

O=[Se]([O-])[O-].[Na+].[Na+] [SODIUM SELENITE]
Activity (Brassica oleracea [1]): Active | Drug uptake (Fruit [2]): 27 mg/kg | Activity (Brassica oleracea [3]): 148 mg/kg | Drug uptake (Fruit [4]): 10 mg/kg | Drug uptake (Leaf [5]): 0.09 mg/kg | Drug uptake (Root [6]): 1.4 mg/kg | Drug uptake (Fruit [7]): 6.5 mg/kg | Drug uptake (Root [8]): 20 mg/kg | Drug uptake (Root [9]): 3.4 mg/kg | Activity (Root [10]): 0.36 mg/kg | Drug uptake (Fruit [11]): 7.2 mg/kg | Drug uptake (Leaf [12]): 0.62 mg/kg | Drug uptake (Root [13]): 5.4 mg/kg | Activity (Brassica oleracea [14]): 155 mg/kg | Drug uptake (Root [15]): 3.6 mg/kg | Drug uptake (Leaf [16]): 0.65 mg/kg | Activity (Fruit [17]): 48 mg/kg | Drug uptake (Root [18]): 6.1 mg/kg | Drug uptake (Fruit [19]): 1.89 mg/kg | Drug uptake (Fruit [20]): 0.24 mg/kg | Activity (Brassica oleracea [21]): Active | Drug uptake (Root [22]): 1.6 mg/kg | Activity (Brassica oleracea [23]): 40% | Activity (Brassica oleracea [24]): 177 mg/kg | Activity (Brassica oleracea [25]): Active | Drug uptake (Leaf [26]): 0.59 mg/kg | Activity (Leaf [27]): 7.5 mg/kg | Activity (Root [28]): 53 mg/kg | Activity (Leaf [29]): 0.2 mg/kg | Activity (Fruit [30]): 0.4 mg/kg | Drug uptake (Leaf [31]): 1.54 mg/kg | Activity (Brassica oleracea [32]): 175 mg/kg | Drug uptake (Fruit [33]): 12.3 mg/kg | Drug uptake (Leaf [34]): 0.082 mg/kg | Drug uptake (Leaf [35]): 2 mg/kg | Drug uptake (Leaf [36]): 0.71 mg/kg | Drug uptake (Fruit [37]): 0.039 mg/kg | Drug uptake (Root [38]): 21 mg/kg
